{"source": "paper PMC10280016", "about": "(Frontiers in Molecular Biosciences, 2023)", "key": {"SARS-CoV-2 [1]": {"tested_on": "SARS-CoV-2"}, "SARS-CoV-2 strain G614 [2]": {"tested_on": "SARS-CoV-2 strain G614", "assay": "microbe, parasite or virus in culture", "type": "cell-based", "conditions": "for IC50: Severe acute respiratory syndrome coronavirus 2, 24 h, read-out: Anti-SARS-CoV-2 activity, spike immunostaining assay (IC50 ± SD)"}, "in vitro": {"assay": "in vitro", "conditions": "human, Caco-2"}, "[3]": {"biological_target": "T1, SARS-CoV-2 main protease (Mpro) (Severe acute respiratory syndrome coronavirus 2, UniProt P0DTD1)", "T1 construct": "made in house", "type": "biochemical"}, "SARS-CoV": {"tested_on": "SARS-CoV", "conditions": "cited from earlier work"}, "[4]": {"tested_on": "SARS-CoV main protease (Mpro, 3CL protease)", "conditions": "ref Wen et al., 2007; cited from earlier work"}, "SARS-CoV-2 [5]": {"tested_on": "SARS-CoV-2", "conditions": "primary human bronchial epithelial cells, air-liquid interface culture; ref ter Ellen et al., 2021; cited from earlier work"}, "SARS-CoV-2 [6]": {"tested_on": "SARS-CoV-2", "conditions": "Vero E6 cells; ref ter Ellen et al., 2021; cited from earlier work"}, "SARS-CoV-2 [7]": {"tested_on": "SARS-CoV-2", "conditions": "ref Bojkova et al., 2023; cited from earlier work"}, "SARS-CoV-2 strain G614 [8]": {"tested_on": "SARS-CoV-2 strain G614", "conditions": "false positive in the assay; ref Bojkova et al., 2023; cited from earlier work"}, "SARS-CoV-2 strain G614 [9]": {"tested_on": "SARS-CoV-2 strain G614", "type": "cell-based", "conditions": "at 10 µM"}}, "note": "“Also recorded” adds a separate entry of the source. Like-named read-outs stand apart in the source and are kept apart here."}
{"smiles": "COc1ccc(-c2coc3cc(O)cc(O)c3c2=O)c(OC)c1O", "note": "[Compound 14, khrinone C]", "values": [{"measurement": "MN Analysis: Activity classification (predicted anti-SARS-CoV-2 activity of the compound)", "setting": "SARS-CoV-2 [1]", "value": "inactive"}, {"measurement": "IC50", "setting": "SARS-CoV-2 strain G614 [2]", "value": "> 100", "unit": "µM"}, {"measurement": "CC50", "setting": "in vitro", "value": "> 100", "unit": "µM"}]}
{"smiles": "COc1ccc2c(c1)OC[C@H]1c3cc(O)c(OC)cc3O[C@@H]21", "note": "[Compound 7, (−)-8-hydroxyhomopterocarpan]", "values": [{"measurement": "IC50", "setting": "SARS-CoV-2 strain G614 [2]", "value": "> 100", "unit": "µM"}, {"measurement": "CC50", "setting": "in vitro", "value": "> 100", "unit": "µM"}]}
{"smiles": "COc1ccc2c(c1)O[C@H]1c3ccc(OC)cc3OC[C@@H]21", "note": "[Compound 5, (−)-homopterocarpin]", "values": [{"measurement": "MN Analysis: Activity classification (predicted anti-SARS-CoV-2 activity of the compound)", "setting": "SARS-CoV-2 [1]", "value": "active"}, {"measurement": "Selectivity index (CC50/IC50)", "setting": "SARS-CoV-2 strain G614 [2]", "value": ">5.8"}, {"measurement": "IC50", "setting": "SARS-CoV-2 strain G614 [2]", "value": "17.2 ± 1.9", "unit": "µM"}, {"measurement": "CC50", "setting": "in vitro", "value": "> 100", "unit": "µM"}, {"measurement": "SARS-CoV-2 Mpro inhibition", "setting": "[3]", "value": "did not show any inhibitory activity; also recorded: no inhibitory activity"}]}
{"smiles": "Oc1ccc2c(c1)OCC1c3cc4c(cc3OC21)OCO4", "note": "(single isomer, unassigned; (-)) [Compound 3, (−)-maackiain]", "values": [{"measurement": "IC50", "setting": "SARS-CoV-2 strain G614 [2]", "value": "> 100", "unit": "µM"}, {"measurement": "CC50", "setting": "in vitro", "value": "> 100", "unit": "µM"}]}
{"smiles": "COc1cc(O)c2c(=O)c(-c3ccc(O)cc3)coc2c1", "note": "[Compound 11, 7-O-methylgenistein]", "values": [{"measurement": "Selectivity index (CC50/IC50)", "setting": "SARS-CoV-2 strain G614 [2]", "value": ">2.6"}, {"measurement": "IC50", "setting": "SARS-CoV-2 strain G614 [2]", "value": "37.9 ± 5.4", "unit": "µM"}, {"measurement": "CC50", "setting": "in vitro", "value": "> 100", "unit": "µM"}]}
{"smiles": "COc1ccc([C@@H]2COc3cc(OC)ccc3C2=O)cc1", "note": "[Compound 23, (+)-7,4′-di-O-methyldihydrodaidzein]", "values": [{"measurement": "Selectivity index (CC50/IC50)", "setting": "SARS-CoV-2 strain G614 [2]", "value": ">1.9"}, {"measurement": "IC50", "setting": "SARS-CoV-2 strain G614 [2]", "value": "53.3 ± 6.2", "unit": "µM"}, {"measurement": "CC50", "setting": "in vitro", "value": "> 100", "unit": "µM"}]}
{"smiles": "COc1ccc2c(c1)OC1c3ccc(O)cc3OCC21", "note": "(single isomer, unassigned; (-)) [Compound 2, (−)-medicarpin]", "values": [{"measurement": "Selectivity index (CC50/IC50)", "setting": "SARS-CoV-2 strain G614 [2]", "value": ">3.0"}, {"measurement": "IC50", "setting": "SARS-CoV-2 strain G614 [2]", "value": "33.4 ± 9.7", "unit": "µM"}, {"measurement": "CC50", "setting": "in vitro", "value": "> 100", "unit": "µM"}]}
{"smiles": "COc1cc(O)c2c(=O)c(-c3ccc(O)c(O)c3)coc2c1", "note": "[Compound 13, santal]", "values": [{"measurement": "Selectivity index (CC50/IC50)", "setting": "SARS-CoV-2 strain G614 [2]", "value": ">1.4"}, {"measurement": "IC50", "setting": "SARS-CoV-2 strain G614 [2]", "value": "74.2 ± 15.4", "unit": "µM"}, {"measurement": "CC50", "setting": "in vitro", "value": "> 100", "unit": "µM"}]}
{"smiles": "O=C1OC[C@H](Cc2ccc3c(c2)OCO3)/C1=C\\c1ccc2c(c1)OCO2", "note": "[savinin]", "values": [{"measurement": "Anti-SARS-CoV activity EC50", "setting": "SARS-CoV", "value": "low micromolar range"}, {"measurement": "Inhibition of SARS-CoV main protease, mode", "setting": "[4]", "value": "competitive inhibition"}]}
{"smiles": "COc1cc2c(cc1O)C1COc3cc(O)ccc3C1O2", "note": "(single isomer, unassigned; (-)) [Compound 4, (−)-3,8-dihydroxy-9-methoxypterocarpan]", "values": [{"measurement": "MN Analysis: Activity classification (predicted anti-SARS-CoV-2 activity of the compound)", "setting": "SARS-CoV-2 [1]", "value": "inactive"}, {"measurement": "IC50", "setting": "SARS-CoV-2 strain G614 [2]", "value": "> 100", "unit": "µM"}, {"measurement": "CC50", "setting": "in vitro", "value": "> 100", "unit": "µM"}]}
{"smiles": "COc1ccc([C@@H]2COc3cc(OC)ccc3C2)c(O)c1", "note": "[Compound 22, (−)-isosativan]", "values": [{"measurement": "Selectivity index (CC50/IC50)", "setting": "SARS-CoV-2 strain G614 [2]", "value": ">2.5"}, {"measurement": "IC50", "setting": "SARS-CoV-2 strain G614 [2]", "value": "40.8 ± 1.8", "unit": "µM"}, {"measurement": "CC50", "setting": "in vitro", "value": "> 100", "unit": "µM"}]}
{"smiles": "COc1cc(/C=C/c2ccc(O)cc2)cc(OC)c1", "note": "[Compound 1, (E)-pterostilbene]", "values": [{"measurement": "Selectivity index (CC50/IC50)", "setting": "SARS-CoV-2 strain G614 [2]", "value": ">2.9"}, {"measurement": "IC50", "setting": "SARS-CoV-2 strain G614 [2]", "value": "34.7 ± 1.6", "unit": "µM"}, {"measurement": "Anti-SARS-CoV-2 activity", "setting": "SARS-CoV-2 [5]", "value": "has shown anti-SARS-CoV-2 activity"}, {"measurement": "CC50", "setting": "in vitro", "value": "> 100", "unit": "µM"}, {"measurement": "Anti-SARS-CoV-2 activity", "setting": "SARS-CoV-2 [6]", "value": "has shown anti-SARS-CoV-2 activity"}]}
{"smiles": "C[C@H](NC(=O)C(=O)Nc1ccccc1C(C)(C)C)C(=O)N[C@@H](CC(=O)O)C(=O)COc1c(F)c(F)cc(F)c1F", "note": "[emricasan]", "values": [{"measurement": "Effect on SARS-CoV-2 replication", "setting": "SARS-CoV-2 [7]", "value": "did not affect SARS-CoV-2 replication"}, {"measurement": "Effect on SARS-CoV-2-induced caspase 3/7 activity", "setting": "SARS-CoV-2 strain G614 [8]", "value": "supressed SARS-CoV-2-induced caspase 3/7 activity"}]}
{"smiles": "COc1ccc2c(c1)OC[C@H]1c3cc4c(cc3O[C@@H]21)OCO4", "note": "[Compound 6, (−)-pterocarpin]", "values": [{"measurement": "MN Analysis: Activity classification (predicted anti-SARS-CoV-2 activity of the compound)", "setting": "SARS-CoV-2 [1]", "value": "active"}, {"measurement": "IC50", "setting": "SARS-CoV-2 strain G614 [2]", "value": "> 100", "unit": "µM"}, {"measurement": "CC50", "setting": "in vitro", "value": "> 100", "unit": "µM"}]}
{"smiles": "COc1ccc2c(c1)oc(=O)c1c3ccc(OC)cc3oc21", "note": "[Compound 16, 3,9-di-O-methylcoumestrol]", "values": [{"measurement": "IC50", "setting": "SARS-CoV-2 strain G614 [2]", "value": "> 100", "unit": "µM"}, {"measurement": "CC50", "setting": "in vitro", "value": "> 100", "unit": "µM"}]}
{"smiles": "CCC(CC)COC(=O)[C@H](C)N[P@](=O)(OC[C@H]1O[C@@](C#N)(c2ccc3c(N)ncnn23)[C@H](O)[C@@H]1O)Oc1ccccc1", "note": "[remdesivir, reference compound]", "values": [{"measurement": "Selectivity index (CC50/IC50)", "setting": "SARS-CoV-2 strain G614 [2]", "value": ">58.8"}, {"measurement": "Selectivity index CC50/IC50", "setting": "SARS-CoV-2 strain G614 [2]", "value": ">58.8"}, {"measurement": "IC50", "setting": "SARS-CoV-2 strain G614 [2]", "value": "0.17 ± 0.01", "unit": "µM"}, {"measurement": "CC50", "setting": "in vitro", "value": "> 10", "unit": "µM"}, {"measurement": "Anti-SARS-CoV-2 activity, Caspase assay [% inhibition]", "setting": "SARS-CoV-2 strain G614 [9]", "value": "93.4 (at 10 µM) % inhibition"}]}
{"smiles": "COc1cc(O)c2c(=O)c(-c3ccc(O)c(OC)c3)coc2c1", "note": "[Compound 12, 7,3′-di-O-methylorobol]", "values": [{"measurement": "IC50", "setting": "SARS-CoV-2 strain G614 [2]", "value": "> 100", "unit": "µM"}, {"measurement": "CC50", "setting": "in vitro", "value": "> 100", "unit": "µM"}]}
{"smiles": "COc1ccc(CCCc2ccc(O)c(OC)c2)c(OC)c1", "note": "[Compound 9, pterosantalin D]", "values": [{"measurement": "IC50", "setting": "SARS-CoV-2 strain G614 [2]", "value": "> 100", "unit": "µM"}, {"measurement": "CC50", "setting": "in vitro", "value": "> 100", "unit": "µM"}]}
